# Assay results taken from PMC3468400, “Pharmacokinetic profiles of artesunate following multiple intravenous doses of 2, 4, and 8 mg/kg in healthy volunteers: Phase 1b study” (Malaria Journal, 2012).
# Where two headings read alike, the source gives them in different places.
# Key:
# [1] = Pharmacokinetics of artesunate (AS) in plasma after multiple intravenous doses, compartmental analysis (Phase 1b); type: in vivo, human; details: for Total AUCD1-D3: days 1-3; for half-life / AUC(0-inf) / Cmax / clearance / MRT / AUC: iv; for clearance: read-out: CL_obs; for AUC: 2-8 mg/kg iv, read-out: Mean AUC of AS, range over doses
# Experimental: The study was a double blind, ascending multiple doses, alternating group, safety, tolerance, and PK study. […] When the injection was completed, the study nurse recorded tolerance of injection to include both inspection of site and subjects’ responses. Subjects were provided a light lunch at approximately 4 hours after dosing. Normal activities, excluding strenuous exercise, were permitted four hours after dosing. […] During the multiple-dose period, samples were collected immediately before morning dose on days 2 and 3 for additional trough values. All the samples were stored at −80 °C until shipment and were then shipped to a bio-analytical GLP laboratory, Midwest Research Institute (MRI), in Kansas City, MO, USA. The human use protocol numbers for the Phase 1 trial are: USUHS #G183RW; WRIAR #1128; and HSRRB #A-13276.
# The analytes were extracted from human plasma with ethyl acetate. […] The reconstituted extracts were analysed on a Micromass Quattro II Mass Spectrometer in the positive ion electrospray ionization (+ESI) mode. […] This method employed a Varian Pursuit C18 column (150 x 2.0 mm, 5-μm particle size) and a gradient elution with the following mobile phases: A: 10 mM ammonium acetate in water with 1% formic acid and B: 10 mM ammonium acetate in acetonitrile with 1% formic acid, for the chromatographic separation.
# Calibration standards and QC samples were analysed to evaluate the performance of the assay.
# Compartmental (model-dependent) and non-compartment (model-independent) PK analysis are common methods to determine PK parameters, which are acceptable by FDA [21]. In order to compare only the clinically relevant concentrations, the compartmental PK analysis was selected for PK analysis in this study and based on a short-term (2 min) intravenous infusion in accordance with a previous PK evaluation. […] The input of the drug was assumed to follow zero-order kinetics, and elimination from the central compartment occurred with first-order kinetics. Compartmental analysis of concentration-time data for parent drug was performed using the WinNonlin software with an intravenous infusion program. The first-order method with logarithmic transformation of all drug-concentration data was used throughout.
# The drug plasma concentrations at the end of an intravenous (IV) infusion (Cmax) were calculated from the corresponding model equations (IV-infusion model, WinNonlin) at the respective time points. The AUC(0-t) (where t = the time point for the last sample on the PK profile in which quantifiable drug was detected) was estimated using linear or linear/log trapezoidal calculations. […] A drug accumulation index was estimated from the AUC values on day 3 (last multiple dose administration) divided by the AUC on day 1 (first multiple dose administration).
# [2] = test system: severe falciparum malaria; details: SEAQUAMAT, cited from earlier work
# [3] = Tolerability and safety of multiple intravenous AS doses in healthy volunteers; type: in vivo, human
# Experimental: The study was a double blind, ascending multiple doses, alternating group, safety, tolerance, and PK study. Injectable AS daily for three days was administered intravenously to three groups of the subjects using alternating doses of 2, 4, and 8 mg. All eight subjects in each dose group received either the AS (six subjects) or placebo (two subjects) in a pre-randomized manner. The study physician, after verifying the code with a study nurse, would then inject either the drug or placebo into an injection port at the pre-measured dose over about 2 min as a short-term intravenous infusion; the study nurse recorded the time of study drug reconstitution, infusion start and completion of injection. When the injection was completed, the study nurse recorded tolerance of injection to include both inspection of site and subjects’ responses. Subjects were provided a light lunch at approximately 4 hours after dosing. Normal activities, excluding strenuous exercise, were permitted four hours after dosing. […] During the multiple-dose period, samples were collected immediately before morning dose on days 2 and 3 for additional trough values. All the samples were stored at −80 °C until shipment and were then shipped to a bio-analytical GLP laboratory, Midwest Research Institute (MRI), in Kansas City, MO, USA. The human use protocol numbers for the Phase 1 trial are: USUHS #G183RW; WRIAR #1128; and HSRRB #A-13276.
# [4] = human, in vivo, po; cited from earlier work
# [5] = human, in vivo, cited from earlier work
# parasitaemia = details: cited from earlier work
# [6] = human, plasma, 2 mg/kg, Day 1, AS 2 mg/kg iv daily for 3 days, 2 min infusion, mean (CV%), n = 6, CA
# [7] = human, plasma, 2 mg/kg, Day 2, AS 2 mg/kg iv daily for 3 days, 2 min infusion, mean (CV%), n = 6, CA
# [8] = human, plasma, 2 mg/kg, Day 3, AS 2 mg/kg iv daily for 3 days, 2 min infusion, mean (CV%), n = 6, CA
# [9] = human, plasma, 4 mg/kg, Day 1, AS 4 mg/kg iv daily for 3 days, 2 min infusion, mean (CV%), n = 6, CA
# [10] = human, plasma, 4 mg/kg, Day 2, AS 4 mg/kg iv daily for 3 days, 2 min infusion, mean (CV%), n = 6, CA
# [11] = human, plasma, 4 mg/kg, Day 3, AS 4 mg/kg iv daily for 3 days, 2 min infusion, mean (CV%), n = 6, CA
# [12] = human, plasma, 8 mg/kg, Day 1, AS 8 mg/kg iv daily for 3 days, 2 min infusion, mean (CV%), n = 6, CA
# [13] = human, plasma, 8 mg/kg, Day 2, AS 8 mg/kg iv daily for 3 days, 2 min infusion, mean (CV%), n = 6, CA
# [14] = human, plasma, 8 mg/kg, Day 3, AS 8 mg/kg iv daily for 3 days, 2 min infusion, mean (CV%), n = 6, CA
# [15] = 2, 4, 8 mg/kg iv daily for three days
smiles,measurement,setting,value
"C[C@H]1[C@H](OC(=O)CCC(=O)O)O[C@@H]2O[C@@]3(C)CC[C@H]4[C@H](C)CC[C@@H]1[C@@]24OO3 [AS, 4-(10’dihydro-artemisinin-oxymethyl) succinate]",Tmax,"[1]; Day 1, AS 2 mg/kg iv daily for 3 days, 2 min infusion, n = 6, CA",2 min
same,Tmax,"[1]; Day 1, AS 4 mg/kg iv daily for 3 days, 2 min infusion, n = 6, CA",2 min
same,Tmax,"[1]; Day 1, AS 8 mg/kg iv daily for 3 days, 2 min infusion, n = 6, CA",2 min
same,Tmax,"[1]; Day 3, AS 2 mg/kg iv daily for 3 days, 2 min infusion, n = 6, CA",2 min
same,Tmax,"[1]; Day 3, AS 4 mg/kg iv daily for 3 days, 2 min infusion, n = 6, CA",2 min
same,Tmax,"[1]; Day 3, AS 8 mg/kg iv daily for 3 days, 2 min infusion, n = 6, CA",2 min
same,"peak concentrations of AS, range","[1]; all days, 2, 4, 8 mg/kg iv doses","16,487-74,588 ng/ml"
same,Total AUCD1-D3,"[1]; AS 2 mg/kg iv daily for 3 days, mean (CV%), n = 6",4731 (40) ng·h/ml
same,Total AUCD1-D3,"[1]; AS 4 mg/kg iv daily for 3 days, mean (CV%), n = 6",10787 (17) ng·h/ml
same,Total AUCD1-D3,"[1]; AS 8 mg/kg iv daily for 3 days, mean (CV%), n = 6",18606 (45) ng·h/ml
same,half-life,"[1]; human, in vivo, 2 mg/kg, Day 1, AS 2 mg/kg iv daily for 3 days, 2 min infusion, mean (CV%), n = 6, CA, read-out: t1/2 elimination (converted)",9.6 min
same,half-life,"[1]; human, in vivo, 2 mg/kg, Day 2, AS 2 mg/kg iv daily for 3 days, 2 min infusion, mean (CV%), n = 6, CA, read-out: t1/2 elimination (converted)",11.4 min
same,half-life,"[1]; human, in vivo, 2 mg/kg, Day 3, AS 2 mg/kg iv daily for 3 days, 2 min infusion, mean (CV%), n = 6, CA, read-out: t1/2 elimination (converted)",9 min
same,half-life,"[1]; human, in vivo, 4 mg/kg, Day 1, AS 4 mg/kg iv daily for 3 days, 2 min infusion, mean (CV%), n = 6, CA, read-out: t1/2 elimination (converted)",12.6 min
same,half-life,"[1]; human, in vivo, 4 mg/kg, Day 2, AS 4 mg/kg iv daily for 3 days, 2 min infusion, mean (CV%), n = 6, CA, read-out: t1/2 elimination (converted)",13.8 min
same,half-life,"[1]; human, in vivo, 4 mg/kg, Day 3, AS 4 mg/kg iv daily for 3 days, 2 min infusion, mean (CV%), n = 6, CA, read-out: t1/2 elimination (converted)",12 min
same,half-life,"[1]; human, in vivo, 8 mg/kg, Day 1, AS 8 mg/kg iv daily for 3 days, 2 min infusion, mean (CV%), n = 6, CA, read-out: t1/2 elimination (converted)",12 min
same,half-life,"[1]; human, in vivo, 8 mg/kg, Day 2, AS 8 mg/kg iv daily for 3 days, 2 min infusion, mean (CV%), n = 6, CA, read-out: t1/2 elimination (converted)",11.4 min
same,half-life,"[1]; human, in vivo, 8 mg/kg, Day 3, AS 8 mg/kg iv daily for 3 days, 2 min infusion, mean (CV%), n = 6, CA, read-out: t1/2 elimination (converted)",12 min
same,AUC(0-inf),[1]; [6],2050 ng·h/mL
same,Cmax,[1]; [6],28400 ng/mL
same,clearance,[1]; [6],21.2 mL/min/kg
same,MRT,"[1]; human, plasma, 2 mg/kg, Day 1, AS 2 mg/kg iv daily for 3 days, 2 min infusion, mean (CV%), n = 6, CA, read-out: MRT",4.8 min
same,AUC(0-inf),[1]; [7],1410 ng·h/mL
same,Cmax,[1]; [7],17900 ng/mL
same,clearance,[1]; [7],29.5 mL/min/kg
same,MRT,"[1]; human, plasma, 2 mg/kg, Day 2, AS 2 mg/kg iv daily for 3 days, 2 min infusion, mean (CV%), n = 6, CA, read-out: MRT",4.8 min
same,AUC(0-inf),[1]; [8],1270 ng·h/mL
same,Cmax,[1]; [8],16500 ng/mL
same,clearance,[1]; [8],27.9 mL/min/kg
same,MRT,"[1]; human, plasma, 2 mg/kg, Day 3, AS 2 mg/kg iv daily for 3 days, 2 min infusion, mean (CV%), n = 6, CA, read-out: MRT",4.2 min
same,AUC(0-inf),[1]; [9],4640 ng·h/mL
same,Cmax,[1]; [9],40600 ng/mL
same,clearance,[1]; [9],19.4 mL/min/kg
same,MRT,"[1]; human, plasma, 4 mg/kg, Day 1, AS 4 mg/kg iv daily for 3 days, 2 min infusion, mean (CV%), n = 6, CA, read-out: MRT",4.8 min
same,AUC(0-inf),[1]; [10],2630 ng·h/mL
same,Cmax,[1]; [10],34400 ng/mL
same,clearance,[1]; [10],27.3 mL/min/kg
same,MRT,"[1]; human, plasma, 4 mg/kg, Day 2, AS 4 mg/kg iv daily for 3 days, 2 min infusion, mean (CV%), n = 6, CA, read-out: MRT",4.8 min
same,AUC(0-inf),[1]; [11],3520 ng·h/mL
same,Cmax,[1]; [11],51200 ng/mL
same,clearance,[1]; [11],23 mL/min/kg
same,MRT,"[1]; human, plasma, 4 mg/kg, Day 3, AS 4 mg/kg iv daily for 3 days, 2 min infusion, mean (CV%), n = 6, CA, read-out: MRT",4.8 min
same,AUC(0-inf),[1]; [12],6020 ng·h/mL
same,Cmax,[1]; [12],63700 ng/mL
same,clearance,[1]; [12],27.9 mL/min/kg
same,MRT,"[1]; human, plasma, 8 mg/kg, Day 1, AS 8 mg/kg iv daily for 3 days, 2 min infusion, mean (CV%), n = 6, CA, read-out: MRT",6 min
same,AUC(0-inf),[1]; [13],6670 ng·h/mL
same,Cmax,[1]; [13],74600 ng/mL
same,clearance,[1]; [13],26.7 mL/min/kg
same,MRT,"[1]; human, plasma, 8 mg/kg, Day 2, AS 8 mg/kg iv daily for 3 days, 2 min infusion, mean (CV%), n = 6, CA, read-out: MRT",4.8 min
same,AUC(0-inf),[1]; [14],5920 ng·h/mL
same,Cmax,[1]; [14],67600 ng/mL
same,clearance,[1]; [14],28.9 mL/min/kg
same,MRT,"[1]; human, plasma, 8 mg/kg, Day 3, AS 8 mg/kg iv daily for 3 days, 2 min infusion, mean (CV%), n = 6, CA, read-out: MRT",5.4 min
same,MRT,"[1]; human, plasma, 8 mg/kg, range during three days of treatment, 2, 4, 8 mg/kg iv doses, read-out: mean residence time of AS, range",4.2 to 4.8 min
same,half-life,"[1]; human, plasma, 8 mg/kg, range of means over three days and 2, 4, 8 mg/kg iv doses, read-out: mean elimination half-life of AS, range",9 to 13.8 min
same,AUC,"[1]; human, plasma, day 1",2050 to 6020 ng·h/mL
same,AUC,"[1]; human, plasma, day 3",1270 to 5920 ng·h/mL
same,Tmax,"[1]; human, plasma, Day 2, AS 2 mg/kg iv daily for 3 days, 2 min infusion, n = 6, CA, read-out: Tmax (converted)",2 min
same,Tmax,"[1]; human, plasma, Day 2, AS 4 mg/kg iv daily for 3 days, 2 min infusion, n = 6, CA, read-out: Tmax (converted)",2 min
same,Tmax,"[1]; human, plasma, Day 2, AS 8 mg/kg iv daily for 3 days, 2 min infusion, n = 6, CA, read-out: Tmax (converted)",2 min
same,mortality rate,"[2]; severe malaria patients, intravenous treatment",15%
same,reduction of mortality versus quinine,[2],35%
same,dose dependence of adverse events,[3]; [15],no dose-dependent increases in any adverse events
same,haemodynamic or ECG effects,[3]; [15],No deleterious haemodynamic or ECG effects were seen
same,other laboratory abnormalities,[3]; [15],no other clinically significant laboratory abnormalities detected
same,duration of transient sensation of altered or unusual taste,"[3]; associated with higher doses of AS, all cases",less than 30 minutes
same,tolerability,"[3]; daily iv for three days, doses up to 8 mg/kg, healthy volunteers",well tolerated and no serious side effects were observed and safe
same,reticulocyte count,"[3]; peaked four days after dosing, returned to normal by study day 7 in most cases, day 10 in all",dose-related decrease
same,Cmax and AUC on the last dose day as compared to the first day,[4],about one-third to one-seventh
same,mean peak level (Cmax),[5]; iv,"11,343 ng/ml"
same,Cmax,[5]; po,1052 ng/mL
same,mean time for clearance of half the parasitaemia (PC50),"parasitaemia; human, in vivo",3.18 h
same,duration of the lag phase of the parasitaemia curve,"parasitaemia; intravenous AS, previous clinical trials",1.92 h
same,lag time of the parasitaemia curve,"parasitaemia; oral AS, previous clinical trials",2.81 h
